Measured values published in US20230278972A1, “SUBSTITUTED HALOALKYL SULFONANILIDE HERBICIDES” (FMC Corporation, priority 2020, published 2023).

What was measured:
Format in all cases: in vivo
[1] = system: wheat (Triticum aestivum); test: Test A1 preemergence, wheat
Outline: (§1)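 Both timings started from seed in a loam-sand blend. Preemergence pots got a directed soil application immediately; postemergence pots were sprayed when seedlings had one or two leaves and stood 2–10 cm. Each compound was prepared in a non-phytotoxic solvent plus surfactant.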

[2] = system: Oat, Wild (wild oat, Avena fatua); test: Test A1 postemergence, Oat, Wild; conditions: for Oat, Wild plant response rating: 31 g ai/ha, postemergence; for Plant response rating, Oat, Wild: Postemergence
Outline: (§2)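 Pre: seeds in loam/sand blend, directed soil spray. Post: potted plants, same soil, 2–10 cm, 1–2 leaf stage. Chemicals in non-phytotoxic solvent + surfactant for both.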

[3] = system: ducksalad (Heteranthera limosa); test: Test B1 flooded paddy test, ducksalad; conditions: 250 g ai/ha, Flood, applied to paddy water, 2-leaf stage, visually evaluated after 10 to 14 days
Text: A dash (-) response means no test result.

[4] = system: galium (catchweed bedstraw, Galium aparine); test: Test A1 postemergence, galium; conditions: for Galium plant response rating: 31 g ai/ha, postemergence; for Plant response rating, Galium: Postemergence
Outline: as §2

[5] = system: Foxtail, Giant (giant foxtail, Setaria faberi); test: Test A1 preemergence, Foxtail, Giant
Outline: as §1

[6] = 31 g ai/ha, 0 to 100 scale (0 no effect, 100 complete control)
[7] = 125 g ai/ha, 0 to 100 scale, 0 no effect, 100 complete control
[8] = 0 to 100 scale (0 no effect, 100 complete control)
[9] = 125 g ai/ha, 0 to 100 scale (0 no effect, 100 complete control), 10 days
[10] = 500 g ai/ha, 0 to 100 scale (0 no effect, 100 complete control)
[11] = 125 g ai/ha, 0 to 100 scale (0 no effect, 100 complete control)

SMILES: CCc1cc(C)c(N(COC(=O)C(C)(C)C)S(=O)(=O)C(F)(F)F)cc1C1=NOC2CCCC12 (centres unmarked) [Compound 378]
- Plant response rating, Wheat [1, 6]: 10
- Plant response rating, Wheat [1, 7]: 20
- Oat, Wild plant response rating [2, 8]: 0
- Plant response rating, Oat, Wild ([2]; 125 g ai/ha, 0 to 100 scale): 30
- Plant response rating, Ducksalad (0 to 100 scale, 0 is no effect, 100 is complete control) [3]: 20
- Galium plant response rating [4, 8]: 20
- Plant response rating, Galium ([4]; 125 g ai/ha, 0 to 100 scale): 40
- Plant response rating, Foxtail, Giant [5, 6]: 0
- Plant response rating, Foxtail, Giant [5, 7]: 20

SMILES: CCOC(=O)N(c1cc(C2=NOC3CCCC23)c(CC)cc1C)S(=O)(=O)C(F)(F)F (centres unmarked) [Compound 379]
- Plant response rating, Wheat [1, 6]: 0
- Plant response rating, Wheat [1, 7]: 30
- Oat, Wild plant response rating [2, 8]: 0
- Plant response rating, Oat, Wild ([2]; 125 g ai/ha, 0 to 100 scale): 20
- Plant response rating, Ducksalad (0 to 100 scale, 0 is no effect, 100 is complete control) [3]: 60
- Galium plant response rating [4, 8]: 0
- Plant response rating, Galium ([4]; 125 g ai/ha, 0 to 100 scale): 40
- Plant response rating, Foxtail, Giant [5, 6]: 0
- Plant response rating, Foxtail, Giant [5, 7]: 70

SMILES: Cc1c(NS(=O)(=O)C(F)(F)F)cc(C2=NOC3(CCCC3)C2)c(C)c1C [Compound 380]
- Plant response rating, Wheat [1, 6]: 30
- Plant response rating, Wheat [1, 7]: 90
- Oat, Wild plant response rating [2, 8]: 0
- Plant response rating, Oat, Wild [2, 9]: 20
- Plant response rating, Ducksalad (0 to 100 scale, 0 is no effect, 100 is complete control) [3]: 70
- Galium plant response rating [4, 8]: 50
- Plant response rating, Galium [4, 9]: 60
- Plant response rating, Foxtail, Giant [5, 6]: 80
- Plant response rating, Foxtail, Giant [5, 7]: 100

SMILES: Cc1c(C2=NOC3(CCCC3)C2)cc(N(COC(=O)C(C)(C)C)S(=O)(=O)C(F)(F)F)c(C)c1C [Compound 382]
- Plant response rating, Wheat [1, 6]: 20
- Plant response rating, Wheat [1, 7]: 20
- Oat, Wild plant response rating [2, 8]: 0
- Plant response rating, Oat, Wild [2, 9]: 0
- Plant response rating, Ducksalad (0 to 100 scale, 0 is no effect, 100 is complete control) [3]: 25
- Galium plant response rating [4, 8]: 0
- Plant response rating, Galium [4, 9]: 50
- Plant response rating, Foxtail, Giant [5, 6]: 0
- Plant response rating, Foxtail, Giant [5, 7]: 30

SMILES: Cc1cc(C)c(N2CC3(CCCCC3)CC2=O)cc1NS(=O)(=O)C(F)(F)F [Compound 392]
- Plant response rating, Wheat [1, 6]: 0
- Plant response rating, Wheat [1, 7]: 50
- Oat, Wild plant response rating [2, 8]: 0
- Plant response rating, Oat, Wild [2, 9]: 0
- Plant response rating, Ducksalad (0 to 100 scale, 0 is no effect, 100 is complete control) [3]: 65
- Galium plant response rating [4, 8]: 50
- Plant response rating, Galium [4, 9]: 80
- Plant response rating, Foxtail, Giant [5, 6]: 0
- Plant response rating, Foxtail, Giant [5, 7]: 100

SMILES: Cc1cc(Cl)c(NS(=O)(=O)C(F)(F)F)cc1N1CCC2(CCCCC2)C1=O [Compound 393]
- Plant response rating, Wheat [1, 6]: 40
- Plant response rating, Wheat [1, 7]: 60
- Oat, Wild plant response rating [2, 8]: 0
- Plant response rating, Oat, Wild [2, 9]: 10
- Plant response rating, Ducksalad (0 to 100 scale, 0 is no effect, 100 is complete control) [3]: 95
- Galium plant response rating [4, 8]: 100
- Plant response rating, Galium [4, 9]: 100
- Plant response rating, Foxtail, Giant [5, 6]: 70
- Plant response rating, Foxtail, Giant [5, 7]: 100

SMILES: Cc1cc(C)c(N(COC(=O)C(C)(C)C)S(=O)(=O)C(F)(F)F)cc1N1CCC2(CCC(F)(F)CC2)C1=O [Compound 397]
- Plant response rating, Wheat [1, 7]: 20
- Plant response rating, Wheat [1, 10]: 100
- Plant response rating, Oat, Wild [2, 9]: 10
- Plant response rating, Oat, Wild ([2]; 500 g ai/ha, 0 to 100 scale): 0
- Plant response rating, Ducksalad (0 to 100 scale, 0 is no effect, 100 is complete control) [3]: 75
- Plant response rating, Galium [4, 9]: 100
- Plant response rating, Galium ([4]; 500 g ai/ha, 0 to 100 scale): 100
- Plant response rating, Foxtail, Giant [5, 7]: 100
- Plant response rating, Foxtail, Giant [5, 10]: 100

SMILES: COC1CCC2(CC1)CCN(c1cc(NS(=O)(=O)C(F)(F)F)c(C)cc1C)C2=O (centres unmarked) [Compound 398]
- Plant response rating, Wheat [1, 6]: 20
- Plant response rating, Wheat [1, 7]: 90
- Oat, Wild plant response rating [2, 8]: 0
- Plant response rating, Oat, Wild [2, 9]: 10
- Plant response rating, Ducksalad (0 to 100 scale, 0 is no effect, 100 is complete control) [3]: 95
- Galium plant response rating [4, 8]: 80
- Plant response rating, Galium [4, 9]: 90
- Plant response rating, Foxtail, Giant [5, 6]: 90
- Plant response rating, Foxtail, Giant [5, 7]: 100

SMILES: Cc1cc(C)c(N(S(=O)(=O)C(F)(F)F)S(=O)(=O)C(F)(F)F)cc1N1CCC2(CCC(C(F)(F)F)CC2)C1=O (centres unmarked) [Compound 399]
- Plant response rating, Wheat [1, 6]: 0
- Plant response rating, Wheat [1, 7]: 20
- Oat, Wild plant response rating [2, 8]: 10
- Plant response rating, Oat, Wild [2, 9]: 40
- Plant response rating, Ducksalad (0 to 100 scale, 0 is no effect, 100 is complete control) [3]: 75
- Galium plant response rating [4, 8]: 50
- Plant response rating, Galium [4, 9]: 90
- Plant response rating, Foxtail, Giant [5, 6]: 10
- Plant response rating, Foxtail, Giant [5, 7]: 90

SMILES: Cc1cc(C)c(N2CCC3(CCC(C(F)(F)F)CC3)C2=O)cc1NS(=O)(=O)C(F)(F)F (centres unmarked) [Compound 400]
- Plant response rating, Wheat [1, 6]: 10
- Plant response rating, Wheat [1, 7]: 80
- Oat, Wild plant response rating [2, 8]: 0
- Plant response rating, Oat, Wild [2, 9]: 0
- Plant response rating, Ducksalad (0 to 100 scale, 0 is no effect, 100 is complete control) [3]: 55
- Galium plant response rating [4, 8]: 80
- Plant response rating, Galium [4, 9]: 100
- Plant response rating, Foxtail, Giant [5, 6]: 20
- Plant response rating, Foxtail, Giant [5, 7]: 90

SMILES: Cc1cc(C)c(N(COC(=O)C(C)(C)C)S(=O)(=O)C(F)(F)F)cc1N1CCC2(CCC(C)CC2)C1=O (centres unmarked) [Compound 401]
- Plant response rating, Wheat [1, 6]: 0
- Plant response rating, Wheat [1, 7]: 0
- Oat, Wild plant response rating [2, 8]: 0
- Plant response rating, Oat, Wild [2, 9]: 30
- Plant response rating, Ducksalad (0 to 100 scale, 0 is no effect, 100 is complete control) [3]: 45
- Galium plant response rating [4, 8]: 50
- Plant response rating, Galium [4, 9]: 80
- Plant response rating, Foxtail, Giant [5, 6]: 0
- Plant response rating, Foxtail, Giant [5, 7]: 0

SMILES: Cc1cc(C)c(N2CCC3(CCC(C)CC3)C2=O)cc1NS(=O)(=O)C(F)(F)F (centres unmarked) [Compound 402]
- Plant response rating, Wheat [1, 6]: 30
- Plant response rating, Wheat [1, 7]: 50
- Oat, Wild plant response rating [2, 8]: 10
- Plant response rating, Oat, Wild [2, 9]: 10
- Plant response rating, Ducksalad (0 to 100 scale, 0 is no effect, 100 is complete control) [3]: 45
- Galium plant response rating [4, 8]: 70
- Plant response rating, Galium [4, 9]: 90
- Plant response rating, Foxtail, Giant [5, 6]: 90
- Plant response rating, Foxtail, Giant [5, 7]: 100

SMILES: Cc1cc(C)c(N(COC(=O)C(C)(C)C)S(=O)(=O)C(F)(F)F)cc1N1CCC2(CCC(C(F)(F)F)CC2)C1=O (centres unmarked) [Compound 403]
- Plant response rating, Wheat [1, 6]: 0
- Plant response rating, Wheat [1, 7]: 0
- Oat, Wild plant response rating [2, 8]: 0
- Plant response rating, Oat, Wild [2, 9]: 30
- Plant response rating, Ducksalad (0 to 100 scale, 0 is no effect, 100 is complete control) [3]: 15
- Galium plant response rating [4, 8]: 70
- Plant response rating, Galium [4, 9]: 100
- Plant response rating, Foxtail, Giant [5, 6]: 0
- Plant response rating, Foxtail, Giant [5, 7]: 10

SMILES: Cc1cc(C)c(N2Cc3cccc(C)c3C2=O)cc1NS(=O)(=O)Cl [Compound 408]
- Plant response rating, Wheat [1, 11]: 100
- Oat, Wild plant response rating [2, 8]: 70
- Plant response rating, Oat, Wild [2, 9]: 70
- Plant response rating, Ducksalad (0 to 100 scale, 0 is no effect, 100 is complete control) [3]: 75
- Galium plant response rating [4, 8]: 90
- Plant response rating, Galium [4, 9]: 100
- Plant response rating, Foxtail, Giant [5, 6]: 100
- Plant response rating, Foxtail, Giant [5, 11]: 100

SMILES: COc1cccc2c1C(=O)N(c1cc(N(COC(=O)C(C)(C)C)S(=O)(=O)Cl)c(C)cc1C)C2 [Compound 413]
- Plant response rating, Wheat [1, 11]: 0
- Oat, Wild plant response rating [2, 8]: 0
- Plant response rating, Oat, Wild [2, 9]: 0
- Plant response rating, Ducksalad (0 to 100 scale, 0 is no effect, 100 is complete control) [3]: 80
- Galium plant response rating [4, 8]: 50
- Plant response rating, Galium [4, 9]: 100
- Plant response rating, Foxtail, Giant [5, 6]: 0
- Plant response rating, Foxtail, Giant [5, 11]: 10

SMILES: CCOc1cccc2c1C(=O)N(c1cc(N(COC(=O)C(C)(C)C)S(=O)(=O)Cl)c(C)cc1C)C2 [Compound 414]
- Plant response rating, Wheat [1, 11]: 0
- Oat, Wild plant response rating [2, 8]: 0
- Plant response rating, Oat, Wild [2, 9]: 0
- Plant response rating, Ducksalad (0 to 100 scale, 0 is no effect, 100 is complete control) [3]: 40
- Galium plant response rating [4, 8]: 60
- Plant response rating, Galium [4, 9]: 70
- Plant response rating, Foxtail, Giant [5, 6]: 0
- Plant response rating, Foxtail, Giant [5, 11]: 0

SMILES: Cc1cc(C)c(N2Cc3cccc(Br)c3C2=O)cc1NS(=O)(=O)Cl [Compound 415]
- Plant response rating, Wheat [1, 11]: 50
- Oat, Wild plant response rating [2, 8]: 10
- Plant response rating, Oat, Wild [2, 9]: 30
- Plant response rating, Ducksalad (0 to 100 scale, 0 is no effect, 100 is complete control) [3]: 65
- Galium plant response rating [4, 8]: 60
- Plant response rating, Galium [4, 9]: 90
- Plant response rating, Foxtail, Giant [5, 6]: 80
- Plant response rating, Foxtail, Giant [5, 11]: 90
